From ChEMBL document CHEMBL4376804, “Review of Transient Receptor Potential Canonical (TRPC5) Channel Modulators and Diseases” (J Med Chem, 2019)

Each compound was assayed against T1, Short transient receptor potential channel 5 (Homo sapiens, UniProt Q9UL62) (assay: Inhibition of TRPC5 (unknown origin) expressed in HEK293/TREx cells assessed as reduction in intracellular calcium level measured for 3 mins by fluo4 dye-based fluorescence assay).
T1 sequence (Q9UL62 whole entry): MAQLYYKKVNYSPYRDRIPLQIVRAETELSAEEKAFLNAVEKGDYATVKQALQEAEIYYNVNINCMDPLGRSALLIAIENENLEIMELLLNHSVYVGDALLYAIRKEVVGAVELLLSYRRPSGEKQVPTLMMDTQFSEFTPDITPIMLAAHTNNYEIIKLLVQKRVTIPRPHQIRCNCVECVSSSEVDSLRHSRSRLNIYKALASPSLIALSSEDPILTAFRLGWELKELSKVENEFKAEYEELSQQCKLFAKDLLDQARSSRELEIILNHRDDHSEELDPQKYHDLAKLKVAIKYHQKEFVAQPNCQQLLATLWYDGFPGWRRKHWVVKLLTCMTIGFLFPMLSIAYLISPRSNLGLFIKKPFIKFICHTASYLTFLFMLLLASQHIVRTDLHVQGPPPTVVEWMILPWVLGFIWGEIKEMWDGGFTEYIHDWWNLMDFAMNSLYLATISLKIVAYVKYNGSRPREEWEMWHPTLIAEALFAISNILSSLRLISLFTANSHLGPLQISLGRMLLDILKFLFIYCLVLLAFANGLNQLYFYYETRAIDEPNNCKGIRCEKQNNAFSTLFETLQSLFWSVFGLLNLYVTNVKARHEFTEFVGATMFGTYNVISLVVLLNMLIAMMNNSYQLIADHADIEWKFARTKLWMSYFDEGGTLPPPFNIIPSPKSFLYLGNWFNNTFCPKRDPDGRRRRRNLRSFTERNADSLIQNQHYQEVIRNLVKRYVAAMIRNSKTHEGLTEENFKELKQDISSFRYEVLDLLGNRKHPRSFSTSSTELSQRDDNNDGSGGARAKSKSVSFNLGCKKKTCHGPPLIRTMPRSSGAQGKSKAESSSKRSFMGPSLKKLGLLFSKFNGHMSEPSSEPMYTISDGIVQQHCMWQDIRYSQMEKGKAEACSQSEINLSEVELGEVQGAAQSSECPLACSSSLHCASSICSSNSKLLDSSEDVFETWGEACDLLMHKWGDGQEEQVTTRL
Type: cell-based

Row | Structure (SMILES) | IC50 [nM]
1 | Cc1c(-c2cncc(Cl)c2)sc2c1c(=O)n(CCCO)c(=O)n2C | 21 to 1700
2 | Cn1c(=O)n(CCCO)c(=O)c2c(Cc3ccccc3)c(-c3cccc(OC(F)(F)F)c3)ccc21 | 1 to 395
3 | CC(C)CCc1c(-c2ccccc2C(C)C)ncc2c1c(=O)n(CCCO)c(=O)n2C | 195 to 9800
4 | Cn1c(=O)n(CCCO)c(=O)c2c1cc(-c1cccc(OC(F)(F)F)c1)n2Cc1ccc(Cl)cc1 | 408 to 7540
5 | CC(C)c1ccccc1-c1cc2c(=O)n(CCCO)c(=O)n(C)c2cn1 | 195 to 9800
6 | Cn1c(=O)n(CCCO)c(=O)c2c(Cc3ccc(Cl)cc3)c(-c3cccc(OC(F)(F)F)c3)sc21 | 21 to 1700
7 | CCCCOc1ccc2c(c1Cc1ccc(F)cc1)c(=O)n(CCCO)c(=O)n2C | 1 to 395
8 | Cn1c(=O)n(CCCO)c(=O)c2c(Cc3ccccc3)c(Oc3cccc(OC(F)(F)F)c3)ccc21 | 1 to 395
9 | CC(C)CCc1c(-c2cccc(OC(F)(F)F)c2)sc2c1c(=O)n(CCCO)c(=O)n2C | 21 to 1700
10 | Cc1c(-c2cccc(OC(F)(F)F)c2)n(Cc2ccc(Cl)cc2)c2c(=O)n(CCCO)c(=O)n(C)c12 | 408 to 7540
11 | Cn1c(=O)n(CCCCO)c(=O)c2c(Cc3ccccc3)c(Oc3cccc(OC(F)(F)F)c3)ccc21 | 1 to 395
12 | Cn1c(=O)n(CCCO)c(=O)c2c(Cc3ccc(Cl)cc3)c(Oc3cccc(OC(F)(F)F)c3)sc21 | 21 to 1700
13 | Cc1c(-c2cccc(OC(F)(F)F)c2)[nH]c2c(=O)n(CCCO)c(=O)n(C)c12 | 408 to 7540
14 | Cn1c(-c2cccc(OC(F)(F)F)c2)cc2c1c(=O)n(CCCO)c(=O)n2C | 408 to 7540
15 | Cc1c(-c2ccc(F)c(F)c2)sc2c1c(=O)n(CCCO)c(=O)n2C | 21 to 1700
16 | Cc1c(-c2ccc(F)c(C(F)(F)F)c2)sc2c1c(=O)n(CCCO)c(=O)n2C | 21 to 1700

Row | Structure (SMILES) | IC50 [nM]
17 | Cc1c(-c2ccccc2OC(F)(F)F)sc2c1c(=O)n(CCCO)c(=O)n2C | 21 to 1700
18 | CC(C)c1ccccc1-c1ncc2c(c1Cc1ccc(Cl)cc1)c(=O)n(CCCO)c(=O)n2C | 195 to 9800
19 | CC(C)CCc1c(-c2cccc(Cl)c2)ncc2c1c(=O)n(CCCO)c(=O)n2C | 195 to 9800
20 | Cc1c(-c2cccc(OC(F)(F)F)c2)sc2c1c(=O)n(CCCO)c(=O)n2C | 21 to 1700
21 | Cc1c(-c2cccc(Cl)c2Cl)sc2c1c(=O)n(CCCO)c(=O)n2C | 21 to 1700
22 | Cn1c(=O)n(CCCO)c(=O)c2c(C(O)c3ccc(Cl)cc3)c(Oc3cccc(OC(F)(F)F)c3)sc21 (stereo not drawn) | 21 to 1700
23 | Cn1c(=O)n(CCCO)c(=O)c2c(Cc3ccc(F)cc3)c(Oc3cccc(OC(F)(F)F)c3)ccc21 | 1 to 395
24 | Cc1cn(Cc2ccc(Cl)cc2)c2c(=O)n(CCCO)c(=O)n(C)c12 | 408 to 7540
25 | CC(C)CC(O)c1c(-c2cccc(OC(F)(F)F)c2)sc2c1c(=O)n(CCCO)c(=O)n2C (stereo not drawn) | 21 to 1700
26 | Cn1c(=O)n(CCCO)c(=O)c2c(Cc3ccc(Cl)cc3)c(Oc3cccc(Cl)c3)ncc21 | 195 to 9800
27 | Cc1c(-c2cccc(OC(F)(F)F)c2)n(C)c2c(=O)n(CCCO)c(=O)n(C)c12 | 408 to 7540
28 | CCCOc1ccc2c(c1Cc1ccc(F)cc1)c(=O)n(CCCO)c(=O)n2C | 1 to 395
29 | CC(C)Oc1ccc2c(c1Cc1ccc(F)cc1)c(=O)n(CCCO)c(=O)n2C | 1 to 395
30 | Cn1c(=O)n(CCCO)c(=O)c2c(Cc3ccccc3)c(Oc3cccc(Cl)c3)ccc21 | 1 to 395
31 | Cc1c(-c2ccccc2Cl)sc2c1c(=O)n(CCCO)c(=O)n2C | 21 to 1700

The remaining lines, values ahead:

Row | IC50 [nM] | Structure (SMILES)
32 | 195 to 9800 | CC(C)CCc1c(-c2ccc(Cl)cc2)ncc2c1c(=O)n(CCCO)c(=O)n2C
33 | 21 to 1700 | Cn1c(=O)n(CCCO)c(=O)c2c(Cc3ccc(Cl)cc3)c(-c3cccc(Cl)c3)oc21
34 | 21 to 1700 | Cc1c(-c2ccc3ccccc3c2)sc2c1c(=O)n(CCCO)c(=O)n2C
35 | 21 to 1700 | Cc1c(-c2ccc(Cl)cc2)sc2c1c(=O)n(CCCO)c(=O)n2C
36 | 408 to 7540 | Cn1c(=O)n(CCCO)c(=O)c2c1c(-c1cccc(Cl)c1)cn2Cc1ccc(Cl)cc1
37 | 21 to 1700 | Cc1c(-c2cccc(F)c2)sc2c1c(=O)n(CCCO)c(=O)n2C
38 | 1 to 395 | COc1ccc2c(c1Cc1ccc(F)cc1)c(=O)n(CCCO)c(=O)n2C
39 | 21 to 1700 | O=c1c2c(Cc3ccc(Cl)cc3)c(-c3cccc(Cl)c3)oc2n(CCCO)c(=O)n1CCCO
40 | 21 to 1700 | Cn1c(=O)n(CCCO)c(=O)c2c(Cc3ccc(Cl)cc3)c(-c3cccc(Cl)c3)sc21
41 | 21 to 1700 | Cn1c(=O)n(CCCO)c(=O)c2c(C(O)c3ccc(Cl)cc3)c(-c3cccc(Cl)c3)sc21 (stereo not drawn)
42 | 21 to 1700 | Cn1c(=O)n(CCCO)c(=O)c2c(Cc3ccc(Cl)cc3)c(Oc3cccc(Cl)c3)sc21
43 | 21 to 1700 | Cc1c(-c2ccc(Cl)c(Cl)c2)sc2c1c(=O)n(CCCO)c(=O)n2C
44 | 195 to 9800 | Cn1c(=O)n(CCCO)c(=O)c2c(Cc3ccccc3)c(-c3cccc(OC(F)(F)F)c3)ncc21
45 | 408 to 7540 | Cn1c(=O)n(CCCO)c(=O)c2c1cc(-c1cccc(Cl)c1)n2Cc1ccc(Cl)cc1
46 | 21 to 1700 | Cn1c(=O)n(CCCO)c(=O)c2c(Cc3ccc(Cl)cc3)c(-c3ccc(Cl)cc3)sc21
47 | 21 to 1700 | Cc1c(-c2cccc(Cl)c2)sc2c1c(=O)n(CCCO)c(=O)n2C
48 | 195 to 9800 | Cn1c(=O)n(CCCOC(=O)O)c(=O)c2c(Cc3ccc(Cl)cc3)c(-c3ccc(Cl)cc3)ncc21

The compounds below were run against T1, Short transient receptor potential channel 5 (assay: Inhibition of human TRPC5 expressed in HEK293 cells assessed as reduction in gadolinium-induced calcium entry after 30 mins by fluo-4 dye based fluorescence assay).
Type: cell-based

Row | IC50 [nM] | Structure (SMILES)
49 | > 10000 | O=c1c(O)c(-c2cc(O)c(O)c(O)c2)oc2cc(O)cc(O)c12 [MYRICETIN]
50 | > 10000 | O=c1cc(-c2ccc(O)cc2)oc2cc(O)cc(O)c12 [APIGENIN]

Row | Structure (SMILES) | IC50 [nM]
51 | O=c1cc(-c2ccc(O)c(O)c2)oc2cc(O)cc(O)c12 [LUTEOLIN] | > 10000

Each compound was assayed against T2, Short transient receptor potential channel 3 (Homo sapiens, UniProt Q13507) (assay: Inhibition of YFP-tagged TRPC3 (unknown origin) expressed in HEK293 cells assessed as reduction carbhocol-induced receptor operated Calcium influx after 5 mins by fura-2-AM dye based assay).
T2 sequence (Q13507 whole entry): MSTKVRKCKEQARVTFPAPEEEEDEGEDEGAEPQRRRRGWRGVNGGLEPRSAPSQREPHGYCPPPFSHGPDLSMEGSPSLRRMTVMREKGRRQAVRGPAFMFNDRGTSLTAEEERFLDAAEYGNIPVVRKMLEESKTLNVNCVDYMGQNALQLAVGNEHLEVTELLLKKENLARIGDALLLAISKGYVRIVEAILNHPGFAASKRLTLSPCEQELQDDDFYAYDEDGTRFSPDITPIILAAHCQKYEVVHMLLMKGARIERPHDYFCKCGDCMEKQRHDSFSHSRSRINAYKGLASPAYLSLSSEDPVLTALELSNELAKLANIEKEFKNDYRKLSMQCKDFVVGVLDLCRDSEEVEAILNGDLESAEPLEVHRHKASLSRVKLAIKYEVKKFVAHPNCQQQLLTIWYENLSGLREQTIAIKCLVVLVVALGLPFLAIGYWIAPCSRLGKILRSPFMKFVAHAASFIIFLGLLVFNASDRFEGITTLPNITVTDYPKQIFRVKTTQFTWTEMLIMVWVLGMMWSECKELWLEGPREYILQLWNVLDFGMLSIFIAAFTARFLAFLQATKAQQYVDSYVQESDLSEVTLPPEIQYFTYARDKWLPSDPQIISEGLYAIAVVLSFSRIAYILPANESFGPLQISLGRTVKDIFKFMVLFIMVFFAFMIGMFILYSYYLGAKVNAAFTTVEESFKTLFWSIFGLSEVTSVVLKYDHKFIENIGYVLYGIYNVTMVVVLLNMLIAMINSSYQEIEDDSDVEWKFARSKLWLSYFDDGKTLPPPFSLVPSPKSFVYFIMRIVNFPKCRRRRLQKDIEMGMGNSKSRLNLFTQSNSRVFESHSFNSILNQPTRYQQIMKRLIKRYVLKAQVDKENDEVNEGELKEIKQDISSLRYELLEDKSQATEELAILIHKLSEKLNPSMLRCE
Type: cell-based

Row | IC50 [nM] | Structure (SMILES)
52 | 720 | Cc1ccc(S(=O)(=O)Nc2ccc(-n3nc(C(F)(F)F)cc3C(F)(F)F)cc2)cc1

Each compound was assayed against ORAI1/STIM1 (Rattus norvegicus, UniProt P84903+Q5M848) (assay: Inhibition of ORAI/STIM1 in thapsigargin treated rat RBL2H3 cells assessed as reduction in store-operated calcium entry after 5 mins by fura-2-AM dye based assay).
ORAI1/STIM1, sequence (P84903 whole entry): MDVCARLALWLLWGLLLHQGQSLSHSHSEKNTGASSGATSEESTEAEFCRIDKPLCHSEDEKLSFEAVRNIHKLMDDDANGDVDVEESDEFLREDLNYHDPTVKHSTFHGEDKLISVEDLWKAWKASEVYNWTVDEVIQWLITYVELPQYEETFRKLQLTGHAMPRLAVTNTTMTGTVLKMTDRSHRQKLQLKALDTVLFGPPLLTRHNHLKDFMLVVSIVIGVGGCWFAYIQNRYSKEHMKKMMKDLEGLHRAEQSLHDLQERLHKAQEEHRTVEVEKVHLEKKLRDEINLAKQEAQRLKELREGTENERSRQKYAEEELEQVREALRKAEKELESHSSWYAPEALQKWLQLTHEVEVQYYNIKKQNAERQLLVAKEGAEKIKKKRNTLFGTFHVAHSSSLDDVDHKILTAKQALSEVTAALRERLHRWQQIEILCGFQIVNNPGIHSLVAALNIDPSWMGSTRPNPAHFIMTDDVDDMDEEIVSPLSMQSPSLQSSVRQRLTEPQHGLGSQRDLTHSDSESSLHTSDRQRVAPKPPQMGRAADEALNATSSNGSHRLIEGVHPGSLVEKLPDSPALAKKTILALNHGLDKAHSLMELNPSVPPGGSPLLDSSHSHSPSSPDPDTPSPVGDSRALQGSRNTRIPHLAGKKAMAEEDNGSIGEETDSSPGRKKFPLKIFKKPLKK
ORAI1/STIM1, sequence (Q5M848 whole entry): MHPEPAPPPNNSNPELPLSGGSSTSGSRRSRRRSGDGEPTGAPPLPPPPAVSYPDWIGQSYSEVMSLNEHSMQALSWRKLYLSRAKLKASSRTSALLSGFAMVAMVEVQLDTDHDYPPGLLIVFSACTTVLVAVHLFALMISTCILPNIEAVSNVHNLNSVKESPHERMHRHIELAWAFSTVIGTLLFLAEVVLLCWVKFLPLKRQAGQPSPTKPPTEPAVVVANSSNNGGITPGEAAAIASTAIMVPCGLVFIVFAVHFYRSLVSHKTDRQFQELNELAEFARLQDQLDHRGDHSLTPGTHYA
Type: cell-based

Row | IC50 [nM] | Structure (SMILES)
53 | 13100 | Cc1ccc(S(=O)(=O)Nc2ccc(-n3nc(C(F)(F)F)cc3C(F)(F)F)cc2)cc1
